From patent US12558348B2, “Bioactive phytochemicals” (Phytoquest Limited, priority 2019, dated 2026)
pIC50: −log10 of the molar value. Marks after values point to notes of the source that are not given here.

Key:
TNF-α [1] = assay: LPS-stimulated TNF-α production in human whole blood (ELISA); format: cell-based; conditions: for TNF-α plasma + LPS: 48 h preincubation, LPS 10 μg/ml 20 h
Method: Blood and buffy coat fractions were supplied by the Scottish National Blood Transfusion Service (SNBTS), Glasgow, UK. Ficoll Histopaque (1.077 g/l), Lipopolysaccharide (from Salmonella abortus equi) was purchased from Sigma-Aldrich Co. Ltd. (UK). PGE was from Cayman Chemical Co. (Ann Arbor, MI). Human TNF-α antibody pairs for TNF-α ELISA assays was from Invitrogen/Life Sciences Europe. All drugs were dissolved in RPMI 1640 medium from Gibco BRL, UK.
Blood was used without any further treatment following donation. It was kindly supplied by the Scottish National Blood Transfusion Service from normal healthy donors as defined by ensuring they all tested negative for HIV, hepatitis B & C, CMV and parasitic diseases such as malaria (as tested by the National Blood Transfusion service). They were also confirmed by our laboratory to be free of acute inflammatory disease at the time the blood was taken by measuring the basal level of TNF-α which was always […].
Aliquots (800 μl) of whole blood were incubated with the compound dissolved in RPMI 1640, as indicated in the results, for the appropriate preincubation period after which LPS was added and incubations continued for a further 20 hr at 37° C. in a humidified (100%) atmosphere of 5% CO2 in air. At the end of the incubation period, supernatants from either plasma or culture medium were collected by centrifugation at 10,000 g for 30 seconds at room temperature and TNF-α levels measured using a human TNF-α ELISA system (BioSource Europe S.A., Belgium, supplied by Invitrogen).
(§1) Table showing the effect of various idoBR1 concentrations on LPS-stimulated TNF-α production in human blood. Whole blood was preincubated for 48 h with varying concentrations of idoBR1 after which LPS (10 μg/ml) was added and incubations continued for a further 20 h. Following incubation at 37° C. (5% CO2, 100% humidity) plasma was collected from blood by centrifugation and the levels of TNF-α In plasma samples were measured by ELISA.
as §1, with “various cucumber extract (0.09% idoBR1)” for “various idoBR1”, “of cucumber Q-Actin extract” for “of idoBR1”, “TNF-α in” for “TNF-α In”, “ELISA. Values represent the means±s.d. of n=3. * denotes P<0.05 compared to LPS alone.” for “ELISA.”

TNF-α [2] = assay: Production of TNF-α by human monocytic cell line THP-1; format: cell-based; conditions: Homo sapiens, THP-1
Method: THP-1 cells are commercially available. Cultured cells can be placed in RPMI complete medium in microtitre plates (e.g. […] in 96 well plates) and after 24 hrs incubation, PMA (10 ng/mi) added to 96 well plate to differentiate THP-1 cells and to determine the effects on TNF-α and IL-10 production. The cells should be pre-treated with cucumber extract at, for example, 200 μg/ml to 25 μg/ml followed by 2 hr LPS (100 ng/ml) stimulation. Post incubation, the cell supernatant is aspirated from each of the wells into sterile micro centrifuge tubes and centrifuged at 1000 rpm for 2-3 mins to settle any cells if present. The cell supernatant is then used for evaluation of presence of TNF-α or IL-10 using ELISA. Sandwich ELISA plates coated with suitable antibody are widely available (e.g. R&D Systems, USA).
A second study indicated even greater activity for idoBR1 in human blood (significant at 0.01 μM) with pre-incubation. […] The data clearly indicate that idoBR1 can inhibit the production of TNF-α in human blood. Thus, it appears that it may be a potent anti-inflammatory agent. It also appears that it may be acting via a novel mechanism distinct from the steroid receptor pathways.

[3] = Oral availability: idoBR1 in urine after eating cucumbers (GC-MS); format: in vivo, human; conditions: for excretion of idoBR1 in urine: volunteer, roughly 13 mg consumed in cucumbers
Method: Parisien pickling cucumbers (seeds purchased from Lidl 2013) were grown organically and three eaten at midday by each of one volunteer and one volunteer. […] The volunteers ate no Cucurbitaceae food for 15 hours prior to the experiment. Urine samples pre-consumption were collected over 3 hours as t=0 and then samples collected for 9 hours for the […] and 15 hours for the person. The 30 g cucumber sample was homogenised in 50% ethanol (aq) and after 15 hours extraction it was filtered and the idoBR1 fraction bound to cation exchange resin IR120 in the H+ form. After washing the column with water, the material displaced with 2M ammonia solution was dried (52.3 mg) and analysed by GC-MS after trimethylsilylation using Pierce TriSil. The remaining 51 mg of material then had 0.2 mg of castanospermine added for comparative quantification purposes. The entire urine samples were similarly treated using cation exchange resin except the material displaced by ammonia solution was run a second time through the same cation exchange resin (now in the ammonium form) to reduce strong bases (which will bind to IR120 in the ammonium form) and only the unretained material was kept. The urine idoBR1 fractions were dried and made up to 20 ml in water. 500 ul of each was sampled and 0.025 mg of castanospermine added.
This was carried out on a Perkin Elmer Turbomass Gold GCMS. The spectrum of the major peak at 10.33 mins matched the GCMS spectrum of authentic idoBR1, 900288 PhytoQuest Ltd, UK). The relative response factor was calculated between authentic BR1 (900125, PhytoQuest Ltd) and castanospermine is 1:2. Assuming the same response factor, the amount of idoBR1 was estimated as 1.5 mg in the 30 g sample which means that the volunteers consumed roughly 260/30×1 5 mg=13 mg of idoBR1.

## O=C(O)[C@@H]1NC[C@H](O)[C@@H](O)[C@@H]1O [idoBR1, (2R,3R,4R,5S)-3,4,5-trihydroxypiperidine-2-carboxylic acid]
TNF-α [1]
  effective concentration on LPS-induced TNF-α in human blood: below 10 μM
TNF-α [1]; 0.01 μM
  TNF-α plasma + LPS: 1680 pg/mL
TNF-α [1]; 0.1 μM
  TNF-α plasma + LPS: 950* pg/ml
TNF-α [1]; 1 μM
  TNF-α plasma + LPS: 490* pg/ml
TNF-α [1]; 10 μM
  TNF-α plasma + LPS: 500* pg/ml
TNF-α [1]; 10 μM, no LPS
  TNF-α plasma (no LPS): 200 pg/mL
TNF-α [1]; 48 hr preincubation, human blood
  pIC50: 6.74
TNF-α [1]; second study, with pre-incubation
  concentration with significant activity in human blood: 0.01 µM
TNF-α [2]; 10 μM
  inhibition at 10 µM: > 50%
TNF-α [2]; 48 hr preincubation, read-out: IC50 for inhibition of the production of TNF-α by THP-1 cells
  pIC50: 7.57
[3]; human urine
  conjugation in the urine analysis: No obvious conjugation
[3]; human, eaten cucumber
  oral availability: available orally
[3]; after 15 hours
  excretion of idoBR1 in urine: approximately 2.4 mg
[3]; samples collected for 9 hours
  excretion of idoBR1 in urine: approximately 2.1 mg
